Assay results as given in patent US5614562A, “Method of treating drug resistant tumor cells using organoselenones” (The University of Sourthern California, priority 1992, dated 1997).
Values after ≈ are worked out from the molar mass of the structure shown. Where two headings read alike, the source gives them in different places.

Tests used:
HCT/VM46 = assay: In vitro cytotoxicity, VM26 resistant HCT/VM46 human colon carcinoma; assay type: cell-based; details: for IC50: Homo sapiens; for IC50 / IC50 HCT/VM46: VM26 resistant, data provided by Bristol-Myers Laboratories; for ratio of IC50 values HCT/VM46 vs HCT116: IC50 divided by IC50 for HCT116; for fold increase in IC50, HCT/VM46: vs HCT116
Description: | HCT/VM46 human colon, VM26 resistant

HCT/VP35 = assay: In vitro cytotoxicity, VP16 resistant HCT/VP35 human colon carcinoma; assay type: cell-based; details: for IC50: Homo sapiens, HCT/VP35; for IC50 / IC50 HCT/VP35: VP16 resistant, data provided by Bristol-Myers Laboratories; for ratio of IC50 values HCT/VP35 vs HCT116: IC50 divided by IC50 for HCT116; for fold increase in IC50, HCT/VP35: vs HCT116
Description: | HCT/VP35 human colon, VP16 resistant

HCT116 = assay: In vitro cytotoxicity, HCT116 human colon carcinoma; assay type: cell-based; details: data provided by Bristol-Myers Laboratories; for IC50: Homo sapiens, HCT-116
Description: ^b Cell lines: HCT116 human colon (sensitive to VP16 and VM26)

L1210/0 [1] = details: cited from earlier work
L1210/0 [2] = assay: Cytotoxicity, 48-hr exposure of L1210/0 leukemia cells; assay type: cell-based, murine; details: read-out: IC50 L1210/0
Description: (§1) Murine L1210 leukemia cells sensitive (L1210/0) and resistant (L1210/L-PAM)to L-phenylalanine mustard were obtained that are adaptable to either in vitro or in vivo passage.
(§2) Broad resistance of the L1210/L-PAM cell line is shown by the approximately 4-fold and 9-fold increases in IC50, compared to L1210/0, for L-PAM and mechlorethamine, respectively (Comparative Examples 3 and 4). […].

L1210/L-PAM [3] = details: L1210/L-PAM line; cited from earlier work
L1210/L-PAM [4] = assay: Cytotoxicity, 48-hr exposure of L-PAM resistant L1210/L-PAM leukemia cells; assay type: cell-based, murine; details: for fold increase in IC50, L1210/L-PAM compared to L1210/0: 48-h exposure; for IC50: read-out: IC50 L1210/L-PAM
Description: as §1, §2

[5] = compared with chlorambucil; cited from earlier work
[6] = test system: HT29 human colon carcinoma cells; assay: Growth inhibition cytotoxicity against HT29 human colon carcinoma cells (MER(+)); assay type: cell-based; details: HT-29
Description: (Example 15) These cells are very high in the alkyltransferase enzyme for repair of DNA guanine O6-alkyl products, and therefore are considered strongly MER(+) in phenotype. Levels of this enzyme in HT29 cells have averaged about 0.5 pmol/mg protein in recent studies (K. Chan, et al., unpublished). […] Thus, the lack of cross-resistance to ethyleneimines by the present invention of 2-chloroethyl aryl selenones is not associated with resistence mediated by the alkyltransferase repair enzyme.

[7] = Mus musculus, L1210/0, 48-hr exposure
[8] = Mus musculus, L1210/LPAM, 48-hr exposure

With `COc1cc([C@@H]2c3cc4c(cc3[C@@H](O[C@@H]3O[C@@H]5CO[C@@H](c6cccs6)O[C@H]5[C@H](O)[C@H]3O)[C@H]3COC(=O)[C@H]23)OCO4)cc(OC)c1O` [VM-26 (Teniposide), Teniposide] the IC50 (HCT/VM46) was 0.17 µg/mL (≈ 0.259 µM), the “ratio of IC50 values HCT/VM46 vs HCT116” value (HCT/VM46) was 4.9 and the “fold increase in IC50, HCT/VM46” value (HCT/VM46) was 4.9 fold. The IC50 (HCT/VP35) was 0.53 µg/mL (≈ 0.807 µM), the “ratio of IC50 values HCT/VP35 vs HCT116” value (HCT/VP35) was 15.1 and the “fold increase in IC50, HCT/VP35” value (HCT/VP35) was 15.1 fold. It also gave an IC50 (HCT116) of 0.035 µg/mL (≈ 0.0533 µM).

In the case of `N[C@@H](Cc1ccc(N(CCCl)CCCl)cc1)C(=O)O` [L-Phenylalanine Mustard (L-PAM), L-Phenylalanine Mustard], the “sensitivity of parent L1210/0 line” value (L1210/0 [1]) is listed as “sensitive”, the IC50 (L1210/0 [2]; Mus musculus, L1210/0, 48 h) is listed as 1.6 µM and the “in vivo resistance (log cell kill differential)” value (L1210/L-PAM [3]) is listed as 4 log. The “fold increase in IC50, L1210/L-PAM compared to L1210/0” value (L1210/L-PAM [4]) was “approximately 4 fold”, the “Ratio of IC50s (L1210/L-PAM vs L1210/0)” value (L1210/L-PAM [4]; 48-hr exposure) was 4.4 and the IC50 (L1210/L-PAM [4]; Mus musculus, L1210/LPAM, 48 h) was 7 µM.

For `O=NN(CCCl)C(=O)NCCCl` [BCNU, carmustine], the “sensitivity of parent L1210/0 line” value (L1210/0 [1]) is listed as “sensitive”.

For `CS(=O)(=O)CS(=O)(=O)OCCCl` [Clomesone], the nucleophilic selectivity [5] is given as “relatively high nucleophilic selectivity approaching that of chlorambucil”.

In the case of `O=P1(N(CCCl)CCCl)NCCCO1` (stereo not drawn) [cyclophosphamide], the “sensitivity of parent L1210/0 line” value (L1210/0 [1]) is given as “sensitive” and the “in vivo resistance (log cell kill differential)” value (L1210/L-PAM [3]) is given as over 2 log.

For (CH3)2 NCSeCH2 CH2 Cl, the IC50 (L1210/0 [2]; 48-hr exposure) was 18 µM, the “Ratio of IC50s (L1210/L-PAM vs L1210/0)” value (L1210/L-PAM [4]; 48-hr exposure) was 1.7 and the IC50 (L1210/L-PAM [4]; 48-hr exposure) was 30 µM.

For `COc1cc([C@@H]2c3cc4c(cc3[C@@H](O[C@@H]3O[C@@H]5CO[C@@H](C)O[C@H]5[C@H](O)[C@H]3O)[C@H]3COC(=O)[C@H]23)OCO4)cc(OC)c1O` [VP-16 (Etoposide), Etoposide], the IC50 (HCT/VM46) was 1.48 µg/mL (≈ 2.51 µM), the “ratio of IC50 values HCT/VM46 vs HCT116” value (HCT/VM46) was 3.2 and the “fold increase in IC50, HCT/VM46” value (HCT/VM46) was 3.2 fold. For the same compound, the IC50 (HCT/VP35) was 4.62 µg/mL (≈ 7.85 µM), the “ratio of IC50 values HCT/VP35 vs HCT116” value (HCT/VP35) was 10.0 and the “fold increase in IC50, HCT/VP35” value (HCT/VP35) was 10.0 fold. For the same compound, the IC50 (HCT116) was 0.46 µg/mL (≈ 0.782 µM).

For “2,6Bis(3-methanesulfonylpropylseleno)lutidine [Lutidine Derivative]”, the IC50 (L1210/0 [2]; 48-hr exposure) was 12 µM, the “IC50 HCT/VM46” value (HCT/VM46) was over 15.6 µg/mL and the “IC50 HCT/VP35” value (HCT/VP35) was over 15.6 µg/mL. For the same compound, the “IC50 HCT116” value (HCT116) was over 15.6 µg/mL, the “Ratio of IC50s (L1210/L-PAM vs L1210/0)” value (L1210/L-PAM [4]; 48-hr exposure) was 2.3 and the IC50 (L1210/L-PAM [4]; 48-hr exposure) was 28 µM.

In the case of 3-methanesulfonylpropyl phenyl selenone, the “ratio of IC50 values HCT/VM46 vs HCT116” value (HCT/VM46) is reported as 0.8, the “IC50 HCT/VM46” value (HCT/VM46) is reported as 4.93 µg/mL and the “ratio of IC50 values HCT/VP35 vs HCT116” value (HCT/VP35) is reported as 0.8. For the same compound, the “IC50 HCT/VP35” value (HCT/VP35) was 5.15 µg/mL and the “IC50 HCT116” value (HCT116) was 6.34 µg/mL.

In the case of `CS(=O)(=O)OCCC[Se]c1ccccc1` [PhSeCH2 CH2 CH2 OMs], the IC50 (L1210/0 [2]; [7]) is reported as 52 µM, the “Ratio of IC50s (L1210/L-PAM vs L1210/0)” value (L1210/L-PAM [4]; 48-hr exposure) is reported as 1.9 and the IC50 (L1210/L-PAM [4]; [8]) is reported as 100 µM.

In the case of `NC(=O)N(CCCl)N=O` [chloroethylnitrosourea (CNU), chloroethylnitrosourea, reference compound], the IC50 [6] is reported as 250 µM.

In the case of `CS(=O)(=O)OCCC[Se]CCCOS(C)(=O)=O` [(MsOCH2 CH2 CH2)2 Se], the IC50 (L1210/0 [2]; [7]) is reported as 2.3 µM, the “fold increase in IC50, L1210/L-PAM compared to L1210/0” value (L1210/L-PAM [4]) is reported as 7 fold and the “Ratio of IC50s (L1210/L-PAM vs L1210/0)” value (L1210/L-PAM [4]; 48-hr exposure) is reported as 7.0. The IC50 (L1210/L-PAM [4]; [8]) was 16 µM.

With `CS(=O)(=O)OCCCCOS(C)(=O)=O` [Busulfan] the IC50 (L1210/0 [2]; [7]) was 55 µM, the “Ratio of IC50s (L1210/L-PAM vs L1210/0)” value (L1210/L-PAM [4]; 48-hr exposure) was 1.1 and the IC50 (L1210/L-PAM [4]; [8]) was 60 µM.

For `S=P(N1CC1)(N1CC1)N1CC1` [thioTEPA], the “sensitivity of parent L1210/0 line” value (L1210/0 [1]) is listed as “sensitive” and the “in vivo resistance (log cell kill differential)” value (L1210/L-PAM [3]) is listed as 4 log.
